Assay results: the NIST ThermoML archive (doi:10.1021/je900199j)
Several values for one entry are separate records, joined by “and”; a condition that tells them apart may be missing. Equal values may be shown once.

Assay: mn = molality of the nth substance listed, in mol/kg
Conditions: 101 kPa, Liquid; for speed of sound: Frequency=4 MHz

[Cl-].[K+] [potassium chloride] + O
m1 = 2.13
Conditions | mass density [kg/m3] | speed of sound [m/s]
298.15 K | 1087.7 | 1592.8
303.15 K | 1085.7 | 1600.4
308.15 K | 1083.6 | 1608
313.15 K | 1081.3 | 1614
318.15 K | 1078.8 | 1617.2
323.15 K | 1076.1 | 1622

O=[N+]([O-])[O-].[K+] [potassium nitrate] + O
m1 = 2.19
Conditions | mass density [kg/m3] | speed of sound
298.15 K | 1115 | 1558.8 m/s
303.15 K | 1112.5 | 1566.8 m/s
308.15 K | 1109.8 | 1572.8 m/s and 1572.6 m/s
313.15 K | 1107 | 1577.6 m/s
318.15 K | 1104 | 1582 m/s
323.15 K | 1100.9 | 1586.4 m/s
